≈ marks a conversion by molar mass, not a printed value.
Key:
[1] = system: Moraxella catarrhalis; experiment: Antibacterial activity against Moraxella catarrhalis SR26840 clinical isolate assessed as […] by CLSI broth microdilution method; assay type: functional
[2] = system: Streptococcus pneumoniae; experiment: Antibacterial activity against penicillin-resistant Streptococcus pneumoniae SR11031 clinical isolate assessed as […] by CLSI broth microdilution method; assay type: functional
[3] = system: Enterococcus faecalis; experiment: Antibacterial activity against Enterococcus faecalis SR1004 clinical isolate assessed as […] by CLSI broth microdilution method; assay type: functional
[4] = system: Staphylococcus aureus; experiment: Antibacterial activity against Staphylococcus aureus SR20549 clinical isolate assessed as […] by CLSI broth microdilution method; assay type: functional
[5] = system: Staphylococcus aureus; experiment: Antibacterial activity against linezolid-resistant Staphylococcus aureus NRS271 clinical isolate harboring G2576T mutation in peptidyl transferase center domain V of 23S rRNA gene assessed as […] by CLSI broth microdilution method; assay type: functional
[6] = system: Staphylococcus aureus; experiment: Antibacterial activity against methicillin-resistant Staphylococcus aureus SR3637 clinical isolate infected in iv dosed JCL/ICR systemic infection model assessed as mortality administered after 1 hr of infection measured for 7 days; assay type: functional
[7] = system: Streptococcus pneumoniae; experiment: Antibacterial activity against Streptococcus pneumoniae SR26207 clinical isolate assessed as […] by CLSI broth microdilution method; assay type: functional
[8] = system: Staphylococcus aureus; experiment: Antibacterial activity against Staphylococcus aureus Smith clinical isolate assessed as […] by CLSI broth microdilution method; assay type: functional
[9] = system: Staphylococcus aureus; experiment: Ratio of linezolid MIC to compound MIC for Staphylococcus aureus Smith clinical isolate; assay type: functional
[10] = system: Staphylococcus aureus; experiment: Antibacterial activity against methicillin-resistant Staphylococcus aureus SR3637 clinical isolate assessed as […] by CLSI broth microdilution method; assay type: functional
[11] = system: Haemophilus influenzae; experiment: Antibacterial activity against Haemophilus influenzae SR27914 clinical isolate assessed as […] by CLSI broth microdilution method; assay type: functional
[12] = system: Staphylococcus aureus; experiment: Ratio of linezolid MIC to compound MIC for Staphylococcus aureus SR20549 clinical isolate; assay type: functional
[13] = system: Enterococcus faecium; experiment: Antibacterial activity against Enterococcus faecium SR7940 clinical isolate assessed as […] by CLSI broth microdilution method; assay type: functional
[14] = system: Staphylococcus aureus; experiment: Antibacterial activity against methicillin-resistant Staphylococcus aureus SR3637 clinical isolate infected in po dosed JCL/ICR systemic infection model assessed as mortality administered after 1 hr of infection measured for 7 days; assay type: functional
[15] = target: T1, MAO-B (Rattus norvegicus, UniProt P19643); experiment: Inhibition of rat forebrain MAO-B using [14C]PEA as substrate at 30 uM preincubated for 20 mins followed by substrate addition measured after 10 mins by liquid scintillation counting analysis; settings: probe [14C]PEA
T1 sequence (P19643 whole entry): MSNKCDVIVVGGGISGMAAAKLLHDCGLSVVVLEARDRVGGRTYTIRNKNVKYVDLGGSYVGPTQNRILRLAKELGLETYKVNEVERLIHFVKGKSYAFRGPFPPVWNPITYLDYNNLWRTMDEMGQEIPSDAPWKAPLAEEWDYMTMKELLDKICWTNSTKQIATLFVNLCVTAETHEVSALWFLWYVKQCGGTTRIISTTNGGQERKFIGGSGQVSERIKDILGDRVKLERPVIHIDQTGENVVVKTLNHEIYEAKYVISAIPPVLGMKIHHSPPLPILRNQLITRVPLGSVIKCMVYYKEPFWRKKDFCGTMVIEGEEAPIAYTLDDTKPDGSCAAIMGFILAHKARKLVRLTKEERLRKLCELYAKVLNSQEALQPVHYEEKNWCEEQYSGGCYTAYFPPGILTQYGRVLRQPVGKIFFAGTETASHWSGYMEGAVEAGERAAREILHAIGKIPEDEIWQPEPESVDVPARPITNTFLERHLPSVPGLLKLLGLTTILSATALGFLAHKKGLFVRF

[16] = target: Cytochrome P450 3A4 (Homo sapiens, UniProt P08684); experiment: Inhibition of human CYP3A4 assessed as terfenadine hydroxylation after 20 mins by LC-MS/MS analysis; assay type: ADME
[17] = target: T2, Cytochrome P450 1A2 (Homo sapiens, UniProt P05177); experiment: Inhibition of human CYP1A2 assessed as ethoxyresorufin O-deethylation after 20 mins by fluorescence plate reader; assay type: ADME
T2 sequence (P05177 whole entry): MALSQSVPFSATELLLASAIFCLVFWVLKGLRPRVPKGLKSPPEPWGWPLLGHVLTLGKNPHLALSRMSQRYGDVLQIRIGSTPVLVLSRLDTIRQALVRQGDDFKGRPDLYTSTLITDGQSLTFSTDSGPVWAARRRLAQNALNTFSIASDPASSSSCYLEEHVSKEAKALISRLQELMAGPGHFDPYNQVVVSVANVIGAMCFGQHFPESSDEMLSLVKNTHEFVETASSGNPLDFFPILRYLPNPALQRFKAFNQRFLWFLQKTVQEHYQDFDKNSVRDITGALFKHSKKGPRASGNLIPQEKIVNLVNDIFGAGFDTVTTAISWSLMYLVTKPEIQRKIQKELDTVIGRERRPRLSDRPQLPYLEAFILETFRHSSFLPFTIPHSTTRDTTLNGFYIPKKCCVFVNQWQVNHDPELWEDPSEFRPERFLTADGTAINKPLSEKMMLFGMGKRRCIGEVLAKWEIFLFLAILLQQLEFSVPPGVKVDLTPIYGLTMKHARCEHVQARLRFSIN

[18] = Cmax in ICR mouse at 5.56 mg/kg, po by LC-MS/MS analysis; assay type: ADME, organism-based; set-up: dose 5.56 mg/kg, route oral; settings: in vivo
[19] = Tmax in ICR mouse at 5.56 mg/kg, po by LC-MS/MS analysis; assay type: ADME, organism-based; set-up: dose 5.56 mg/kg, route oral; settings: in vivo
[20] = AUC (infinity) in ICR mouse at 5.56 mg/kg, po by LC-MS/MS analysis; assay type: ADME, organism-based; set-up: time infinity, dose 5.56 mg/kg, route oral; settings: plasma
[21] = target: T3, MAO-A (Rattus norvegicus, UniProt P21396); experiment: Inhibition of rat forebrain MAO-A using [14C]5-HT as substrate at 30 uM preincubated for 20 mins followed by substrate addition measured after 5 mins by liquid scintillation counting analysis; settings: probe [14C]5-HT
T3 sequence (P21396 whole entry): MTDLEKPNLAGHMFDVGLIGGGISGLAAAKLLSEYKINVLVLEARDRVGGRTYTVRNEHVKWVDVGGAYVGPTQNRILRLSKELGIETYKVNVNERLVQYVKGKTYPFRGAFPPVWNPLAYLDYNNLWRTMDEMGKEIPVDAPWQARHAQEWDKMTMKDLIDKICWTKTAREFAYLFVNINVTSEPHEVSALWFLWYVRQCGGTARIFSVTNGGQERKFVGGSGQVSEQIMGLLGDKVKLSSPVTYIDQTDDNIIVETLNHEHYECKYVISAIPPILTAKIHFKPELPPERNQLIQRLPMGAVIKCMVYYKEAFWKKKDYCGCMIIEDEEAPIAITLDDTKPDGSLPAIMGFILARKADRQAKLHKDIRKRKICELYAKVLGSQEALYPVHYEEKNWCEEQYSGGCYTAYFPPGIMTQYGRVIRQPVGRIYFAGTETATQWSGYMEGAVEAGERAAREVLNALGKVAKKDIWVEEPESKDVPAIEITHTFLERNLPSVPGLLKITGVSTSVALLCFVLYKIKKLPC

[22] = target: Cytochrome P450 2C9 (Homo sapiens, UniProt P11712); experiment: Inhibition of human CYP2C9 assessed as tolbutamide hydroxylation after 20 mins by LC-MS/MS analysis; assay type: ADME
[23] = system: Staphylococcus aureus; experiment: Potency index, ratio of linezolid ED50 to compound ED50 for methicillin-resistant Staphylococcus aureus SR3637 in po dosed JCL/ICR mouse systemic infection model; assay type: functional
[24] = target: Cytochrome P450 2D6 (Homo sapiens, UniProt P10635); experiment: Inhibition of human CYP2D6 assessed as dextromethorphan O-demethylation after 20 mins by LC-MS/MS analysis; assay type: ADME
Sequence of Cytochrome P450 2D6 (P10635 whole entry): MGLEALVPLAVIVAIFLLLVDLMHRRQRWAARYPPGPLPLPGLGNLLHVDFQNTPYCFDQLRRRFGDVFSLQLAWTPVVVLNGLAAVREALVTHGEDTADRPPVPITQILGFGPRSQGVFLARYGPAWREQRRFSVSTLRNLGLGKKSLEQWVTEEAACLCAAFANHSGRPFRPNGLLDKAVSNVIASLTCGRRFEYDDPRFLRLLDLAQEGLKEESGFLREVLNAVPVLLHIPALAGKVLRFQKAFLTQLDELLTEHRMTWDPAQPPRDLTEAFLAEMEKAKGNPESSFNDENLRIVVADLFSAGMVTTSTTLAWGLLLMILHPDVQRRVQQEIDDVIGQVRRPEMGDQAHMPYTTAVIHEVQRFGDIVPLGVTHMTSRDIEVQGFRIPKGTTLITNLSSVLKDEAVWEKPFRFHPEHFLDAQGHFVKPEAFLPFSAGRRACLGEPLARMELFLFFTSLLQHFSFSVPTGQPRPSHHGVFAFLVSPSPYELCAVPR

Sequence of Cytochrome P450 3A4 (P08684 whole entry): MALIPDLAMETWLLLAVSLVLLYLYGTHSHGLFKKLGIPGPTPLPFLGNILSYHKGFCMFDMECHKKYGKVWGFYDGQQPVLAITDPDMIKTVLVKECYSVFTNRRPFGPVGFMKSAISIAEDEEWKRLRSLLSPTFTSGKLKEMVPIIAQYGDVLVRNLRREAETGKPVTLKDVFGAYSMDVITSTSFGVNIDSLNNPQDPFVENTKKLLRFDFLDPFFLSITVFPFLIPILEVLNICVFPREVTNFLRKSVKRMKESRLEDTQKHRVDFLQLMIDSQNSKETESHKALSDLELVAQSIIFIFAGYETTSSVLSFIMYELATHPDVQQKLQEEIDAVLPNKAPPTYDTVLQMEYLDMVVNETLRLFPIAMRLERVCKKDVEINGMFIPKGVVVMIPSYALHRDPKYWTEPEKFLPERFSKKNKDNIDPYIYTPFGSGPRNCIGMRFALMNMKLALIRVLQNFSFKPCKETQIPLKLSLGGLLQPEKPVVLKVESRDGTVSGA
Sequence of Cytochrome P450 2C9 (P11712 whole entry): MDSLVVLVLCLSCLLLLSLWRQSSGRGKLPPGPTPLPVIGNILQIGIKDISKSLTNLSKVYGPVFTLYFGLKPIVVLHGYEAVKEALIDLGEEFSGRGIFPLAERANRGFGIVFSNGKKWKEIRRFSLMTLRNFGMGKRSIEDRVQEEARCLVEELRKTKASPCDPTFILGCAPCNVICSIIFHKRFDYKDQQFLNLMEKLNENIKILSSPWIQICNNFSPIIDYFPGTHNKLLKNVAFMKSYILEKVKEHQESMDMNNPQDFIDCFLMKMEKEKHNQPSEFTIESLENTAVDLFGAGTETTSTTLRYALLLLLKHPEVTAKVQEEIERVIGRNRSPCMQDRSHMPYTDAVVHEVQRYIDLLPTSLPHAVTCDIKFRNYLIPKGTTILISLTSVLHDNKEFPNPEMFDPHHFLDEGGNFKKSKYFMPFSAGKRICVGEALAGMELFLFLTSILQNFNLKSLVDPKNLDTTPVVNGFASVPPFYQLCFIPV

CC(=O)NC[C@H]1CN(c2ccc(-c3ccc4ccnn4c3)c(F)c2)C(=O)O1
MIC [1]: 2 µg/mL (≈ 5.43 µM) | MIC [2]: ≤ 0.063 µg/mL | MIC [3]: 0.5 µg/mL (≈ 1.36 µM) | MIC [4]: 0.25 µg/mL (≈ 0.679 µM) | MIC [5]: 2 µg/mL (≈ 5.43 µM) | ED50 [6]: > 10 mg/kg | MIC [7]: ≤ 0.063 µg/mL | MIC [8]: 0.5 µg/mL (≈ 1.36 µM) | Ratio [9]: 4 | MIC [10]: 0.25 µg/mL (≈ 0.679 µM) | MIC [11]: 8 µg/mL (≈ 21.7 µM) | Ratio [12]: 8 | MIC [13]: 0.25 µg/mL (≈ 0.679 µM)

CC(=O)NC[C@H]1CN(c2ccc(-c3ccn4ncnc4c3)c(F)c2)C(=O)O1
MIC [1]: 4 µg/mL (≈ 10.8 µM) | MIC [2]: ≤ 0.063 µg/mL | ED50 [14]: 0.55 mg/kg | inhibition at 10 min, 30 µM [15]: 78.2% | MIC [3]: 0.25 µg/mL (≈ 0.677 µM) | MIC [4]: 0.25 µg/mL (≈ 0.677 µM) | MIC [5]: 4 µg/mL (≈ 10.8 µM) | ED50 [6]: 0.34 mg/kg | IC50 [16]: > 20 µM | IC50 [17]: > 20 µM | MIC [7]: ≤ 0.063 µg/mL | MIC [8]: 0.5 µg/mL (≈ 1.35 µM) | Cmax [18]: 4780 ng/mL | Ratio [9]: 4 | Tmax [19]: 1 h | AUC(0-inf) [20]: 30900 ng·h/mL | inhibition at 5 min, 30 µM [21]: 55.9% | MIC [10]: 0.25 µg/mL (≈ 0.677 µM) | MIC [11]: 4 µg/mL (≈ 10.8 µM) | Ratio [12]: 2 | IC50 [22]: > 20 µM | Ratio ED50 [23]: 4 | MIC [13]: 0.25 µg/mL (≈ 0.677 µM) | IC50 [24]: > 20 µM

O=C1O[C@@H](Cn2ccnn2)CN1c1ccc(-c2ccn3ccnc3c2)c(F)c1
MIC [1]: 2 µg/mL (≈ 5.29 µM) | MIC [2]: ≤ 0.063 µg/mL | ED50 [14]: 1.02 mg/kg | inhibition at 10 min, 30 µM [15]: 26.7% | MIC [3]: 0.25 µg/mL (≈ 0.661 µM) | MIC [4]: 0.125 µg/mL (≈ 0.33 µM) | MIC [5]: 2 µg/mL (≈ 5.29 µM) | ED50 [6]: 0.95 mg/kg | IC50 [16]: 15 µM | IC50 [17]: > 20 µM | MIC [7]: ≤ 0.063 µg/mL | MIC [8]: 0.25 µg/mL (≈ 0.661 µM) | inhibition at 5 min, 30 µM [21]: 41.2% | MIC [10]: 0.125 µg/mL (≈ 0.33 µM) | MIC [11]: 2 µg/mL (≈ 5.29 µM) | IC50 [22]: > 20 µM | MIC [13]: 0.25 µg/mL (≈ 0.661 µM) | IC50 [24]: > 20 µM

O=C1O[C@@H](Cn2ccnn2)CN1c1ccc(-c2ccc3ncnn3c2)c(F)c1
MIC [1]: 8 µg/mL (≈ 21.1 µM) | MIC [2]: ≤ 0.063 µg/mL | MIC [3]: 0.5 µg/mL (≈ 1.32 µM) | MIC [4]: 0.25 µg/mL (≈ 0.659 µM) | MIC [5]: 8 µg/mL (≈ 21.1 µM) | MIC [7]: ≤ 0.063 µg/mL | MIC [8]: 0.5 µg/mL (≈ 1.32 µM) | MIC [10]: 0.25 µg/mL (≈ 0.659 µM) | MIC [11]: 4 µg/mL (≈ 10.5 µM) | MIC [13]: 0.25 µg/mL (≈ 0.659 µM)

CC(=O)NC[C@H]1CN(c2ccc(-c3ccc4nccn4c3)c(F)c2)C(=O)O1
MIC [1]: 8 µg/mL (≈ 21.7 µM) | MIC [2]: ≤ 0.063 µg/mL | ED50 [14]: 3.05 mg/kg | MIC [3]: 0.5 µg/mL (≈ 1.36 µM) | MIC [4]: 0.5 µg/mL (≈ 1.36 µM) | MIC [5]: 8 µg/mL (≈ 21.7 µM) | ED50 [6]: 3.17 mg/kg | MIC [7]: ≤ 0.063 µg/mL | MIC [8]: 1 µg/mL (≈ 2.71 µM) | Ratio [9]: 2 | MIC [10]: 0.5 µg/mL (≈ 1.36 µM) | MIC [11]: 4 µg/mL (≈ 10.9 µM) | Ratio [12]: 4 | MIC [13]: 0.25 µg/mL (≈ 0.679 µM)

Source: ChEMBL document CHEMBL3091359, “Potent oxazolidinone antibacterials with heteroaromatic C-ring substructure” (ACS Med Chem Lett, 2013)
